Results taken from ChEMBL document CHEMBL4330092, “Optimization of Vinyl Sulfone Derivatives as Potent Nuclear Factor Erythroid 2-Related Factor 2 (Nrf2) Activators for Parkinson's Disease Therapy” (J Med Chem, 2019).

Tests used:
[1] = Aqueous solubility of the compound; type: physicochemical; settings: aqueous medium
[2] = Dissociation constant, pKa of the compound; type: physicochemical
[3] = Oral bioavailability in rat at 10 mg/kg; type: ADME, organism-based; settings: in vivo
[4] = Lipophilicity, log P of the compound; type: physicochemical; settings: octanol/water
[5] = Tmax in rat at 10 mg/kg, po; type: ADME, organism-based; settings: in vivo

Row | Compound | solubility [1] [mg/mL] | pKa [2] | bioavailability [3] [%] | logP [4] | Tmax [5] [min]
1 | Cl.O=S(=O)(/C=C/c1ncccc1F)c1ccc(OCCCN2CCOCC2)cc1 | > 30 | 7.58 | 45.3 | 2.29 | 24
2 | COc1ccccc1S(=O)(=O)/C=C/c1ccccc1Cl | < 0.01 |  |  |  | 
